This passage reports inhibition results from PMC6934184, “Selective DNA-PKcs inhibition extends the therapeutic index of localized radiotherapy and chemotherapy” (The Journal of Clinical Investigation, 2019).

The assay has as its target T1, CHUK (IKK alpha) (Homo sapiens, UniProt O15111).
T1 construct: purchased Thermo Fisher Scientific (Life Technologies) SelectScreen
Kind of assay: SelectScreen Adapta. The format is biochemical. The essentials: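 NU5455 was profiled across the SelectScreen Broad panel of kinase activity and binding assays. Z'LYTE reactions such as CSF1R ran at apparent Km ATP, while the Adapta CAMK1 assay used ATP listed as 10. Values are given as percent.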

T1 sequence (O15111 whole entry): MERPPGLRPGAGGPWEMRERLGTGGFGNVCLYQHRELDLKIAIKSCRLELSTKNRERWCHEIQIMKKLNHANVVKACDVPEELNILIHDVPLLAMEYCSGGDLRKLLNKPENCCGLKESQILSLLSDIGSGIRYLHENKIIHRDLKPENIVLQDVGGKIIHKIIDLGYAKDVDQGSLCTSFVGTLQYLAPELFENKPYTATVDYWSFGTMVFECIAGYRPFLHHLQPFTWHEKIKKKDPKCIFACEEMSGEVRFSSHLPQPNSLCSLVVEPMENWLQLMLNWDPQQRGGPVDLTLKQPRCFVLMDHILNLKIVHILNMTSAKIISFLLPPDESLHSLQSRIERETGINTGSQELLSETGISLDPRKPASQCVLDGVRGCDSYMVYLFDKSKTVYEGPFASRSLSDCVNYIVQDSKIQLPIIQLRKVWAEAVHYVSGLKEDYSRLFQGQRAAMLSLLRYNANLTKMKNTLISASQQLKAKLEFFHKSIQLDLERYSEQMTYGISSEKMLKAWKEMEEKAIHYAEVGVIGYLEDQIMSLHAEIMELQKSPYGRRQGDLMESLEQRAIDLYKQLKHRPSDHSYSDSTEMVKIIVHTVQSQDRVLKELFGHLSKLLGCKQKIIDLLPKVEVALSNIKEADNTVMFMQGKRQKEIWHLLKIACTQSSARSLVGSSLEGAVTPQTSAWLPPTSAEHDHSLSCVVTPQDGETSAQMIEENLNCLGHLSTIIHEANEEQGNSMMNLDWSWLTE

Broadly, the inhibition is the change of the read-out against control, counted positive when it falls. Regarding `CN(C(=O)CN1CCOCC1)c1ccc2sc3c(-c4cccc5c(=O)cc(N6CC7CCC(C6)O7)oc45)cccc3c2c1` [NU5455], the inhibition at 1 µM is -4.2%.
